Cc1c(OCC(F)(F)F)ccnc1CS(=O)c1nc2ccccc2[nH]1 (stereo not drawn)
solubility (mole fraction)
Details | 278.15 K | 283.15 K | 288.15 K | 293.15 K | 298.15 K | 303.15 K | 308.15 K | 313.15 K | 318.15 K
in acetone | 0.0174 | 0.0197 | 0.0221 | 0.0256 | 0.0287 | 0.0337 | 0.0398 | 0.0461 | 0.053
in acetonitrile | 0.00324 | 0.00406 | 0.00516 | 0.00642 | 0.00805 | 0.01 | 0.0124 | 0.015 | 0.0186
in ethanol | 0.00976 | 0.0114 | 0.0145 | 0.0179 | 0.0221 | 0.0274 | 0.0327 | 0.0402 | 0.0487
in ethyl acetate | 0.00415 | 0.00512 | 0.00637 | 0.00799 | 0.00962 | 0.0118 | 0.0145 | 0.0175 | 0.0216
in isobutanol | 0.00434 | 0.00534 | 0.00657 | 0.00803 | 0.0098 | 0.012 | 0.0148 | 0.0179 | 0.0218
in isopropanol | 0.00417 | 0.00469 | 0.00569 | 0.00708 | 0.00879 | 0.0109 | 0.0136 | 0.0168 | 0.0204
in methanol | 0.022 | 0.0271 | 0.0331 | 0.0428 | 0.0532 | 0.0653 | 0.0803 | 0.101 | 0.125
in methyl acetate | 0.00633 | 0.00729 | 0.00849 | 0.0105 | 0.0131 | 0.0158 | 0.02 | 0.0245 | 0.03
in n-butanol | 0.00564 | 0.00701 | 0.00832 | 0.0105 | 0.0127 | 0.016 | 0.0196 | 0.0242 | 0.0296
in n-butyl acetate | 0.00168 | 0.00206 | 0.00259 | 0.00329 | 0.00406 | 0.00505 | 0.0063 | 0.00785 | 0.00945
in n-propanol | 0.00803 | 0.00912 | 0.0108 | 0.0132 | 0.0157 | 0.019 | 0.0233 | 0.028 | 0.0335
in n-propyl acetate | 0.00227 | 0.00268 | 0.00342 | 0.00417 | 0.00522 | 0.00654 | 0.00831 | 0.0101 | 0.0127

Reference: BigSolDB 2.1
